Experimental data as given in PMC5481817, “Developing Targeted Hybrid Imaging Probes by Chelator Scaffolding” (Bioconjugate chemistry, 2017).

Assays:
integrin αvβ3 = molecular target: T1, integrin αvβ3 (Homo sapiens, UniProt P05106+P06756); assay: Integrin binding affinity assay (displacement of [125I]-c(RGDyV)) on M21 cells; conditions: metal-free conjugate or reference peptide, radioligand [125I]-c(RGDyV), 2 h RT
T1 construct: endogenous in cells; host or cells: human melanoma M21 cells (gift from D. A. Cheresh)
Description: Receptor binding affinities were evaluated via a displacement cell-binding assay for metal free as well as metal bound ([^natGa]) conjugates. Binding of nonradioactive gallium was performed in analogy to the radiolabeling procedure but instead of the generator eluate a 100-fold molar excess of gallium bromide (GaBr3) dissolved in 100 μL 0.1 N HCl was used. Cells were prepared as described below and incubated with increasing concentrations [0.001–1000 nM] of competitor in triplicate. After addition of corresponding iodinated radioligand the 96-well MulitScreen Filter Plates HTS (1 μm glass fiber filter, Merck Millipore, Darmstadt, Germany) were incubated for 1 or 2 h at RT under shaking conditions (Compact shaker KS-15 control, 200/min) and after a washing step the remaining activity on the filter was measured in the γ-counter. The receptor affinity of DOTA-minigastrin11 as well as c(RGDyV) were determined under the corresponding conditions as a reference. IC50 values were calculated by using nonlinear curve fitting with following formula NS+SB/(1+x/IC50) on Origin 6.1 software (Northampton, MA, USA). A detailed description regarding iodination can be found in the Supporting Information.
Integrin binding affinity assay was adapted from Yun Wu et al.[31] Briefly, M21 cells were washed two times with phosphate buffered saline followed by suspension in binding buffer (=20 mM TRIS pH 7.4 + 150 mM NaCl + 2 mM CaCl2 + 1 mM MgCl2 + 1 mM MnCl2 0.1% BSA). 96-well plates were washed with 200 μL of 20 mM TRIS-buffer and seeded with 1 × 10^6 cells/well (10^7 cells/mL). After 10 min of incubation in the presence of the competitor {([^natGa])Sulfo-Cy7-FSC-RGD or c(RGDyV) diluted in binding buffer)} volume was adjusted to 200 μL/well by adding 50 μL of radioligand ([^125I]-c(RGDyV), 4.5 × 10^4 cpm) and the plate was left for 2 h at RT. Finally the supernatant was removed by vacuum and each well was washed three times with 200 μL ice-cold binding buffer.

[1] = test system: M21 (αvβ3-positive) cells; assay: Fluorescence measured cell specificity, M21; assay type: cell-based, human; conditions: 2 h incubation, 3 nM ligand
Description: (§1) Fluorescence assays were conducted similarly to the internalization assays except for using lower cell numbers and determining only the cellbound fraction. Briefly, A431-CCK2R, M21, and M21-L cells were diluted in corresponding media to a density of 2 × 10^6 cells/mL. Aliquots of 0.5 mL were transferred to Eppendorf tubes—six technical replicates for A431-CCK2R unblocked and blocked and M21/M21-L, respectively—and treated in the same manner as described above. The nonradiolabeled particular ligand was added to a final concentration of 3 nM and the tubes were kept in an incubator (Incubator hood TH15 and Compact shaker KS-15 control, Edmund Bühler GmbH, Hechingen, Germany) at 37 °C for 2 h under vigorously shaking (420/min). After centrifugation (2 min, 5000 rpm) washing steps were performed as mentioned before. […] Fluorescence intensity was measured with Tecan Infinite 200 PRO series multiplate reader (Tecan Trading AG, Switzerland) by using Tecan Icontrol 1.1 software. Parameters were set as follows: Fluorescence Top reading; excitation/emission wavelength 740/790 nm; excitation bandwidth 9 nm; emission bandwidth 20 nm; gain optimal; number of flashes 25; integration time 25 μs. Results were calculated and expressed as percentage of cell-bound fluorescence in relation to the standards sample.

[2] = test system: M21-L (αvβ3-negative) cells; assay: Fluorescence measured cell specificity, M21-L; assay type: cell-based, human; conditions: 2 h incubation, 3 nM ligand
Description: as §1

[3] = test system: mice bearing U-87MG tumor xenografts; assay: Near-infrared fluorescence imaging, U-87MG xenografts; assay type: in vivo, mouse
Description: All animal experiments were conducted in accordance with regulations and guidelines of the Czech Animal Protection Act (No. 246/1992), and with the approval of the Czech Ministry of Education, Youth, and Sports (MSMT-22421/2013–12), and the institutional Animal Welfare Committee of the Faculty of Medicine and Dentistry of Palacky University in Olomouc. The studies were performed using female 8–10-week-old athymic BALB/c nude mice (Envigo, Horst, The Netherlands). […]
Tumor xenografts were established near the front shoulder of mice by subcutaneous injection of 5 × 10^6 cells (U-87 MG) or 2 × 10^6 cells (A431-CCK2R) and the same amount of A431-mock cells as a control in 200 μL appropriate medium and Matrigel (1:1). […] Tumors, blood, muscle tissue, and organs were extracted, weighed, and activity uptake of the samples was measured in the gamma counter. Results were expressed as percentage of injected dose per gram tissue (% ID/g). […] After reconstruction, acquired data was viewed and analyzed with PMOD software (PMOD Technologies Ltd., Zurich, Switzerland). […] Near-infrared in vivo fluorescence imaging was performed with an In-Vivo MS FX PRO small animal imaging system (Bruker Biospin Corporation, Woodbridge, CT, USA). […] An appropriate filter set (excitation = 730 nm and emission = 790 nm) was used for acquiring the Sulfo-Cy7-FSC-peptide - fluorescence in vivo. […]

human CCK-2 receptor = molecular target: T2, human CCK-2 receptor (Homo sapiens, UniProt P32239); design: method as in unpublished data; conditions: comparison value, slight variances in experimental setting; ref unpublished data; cited from earlier work
T2 construct: expressed in transfected cells; host or cells: A431 human squamous carcinoma cells (gift from L. Aloj)
T2 sequence (P32239 1-447): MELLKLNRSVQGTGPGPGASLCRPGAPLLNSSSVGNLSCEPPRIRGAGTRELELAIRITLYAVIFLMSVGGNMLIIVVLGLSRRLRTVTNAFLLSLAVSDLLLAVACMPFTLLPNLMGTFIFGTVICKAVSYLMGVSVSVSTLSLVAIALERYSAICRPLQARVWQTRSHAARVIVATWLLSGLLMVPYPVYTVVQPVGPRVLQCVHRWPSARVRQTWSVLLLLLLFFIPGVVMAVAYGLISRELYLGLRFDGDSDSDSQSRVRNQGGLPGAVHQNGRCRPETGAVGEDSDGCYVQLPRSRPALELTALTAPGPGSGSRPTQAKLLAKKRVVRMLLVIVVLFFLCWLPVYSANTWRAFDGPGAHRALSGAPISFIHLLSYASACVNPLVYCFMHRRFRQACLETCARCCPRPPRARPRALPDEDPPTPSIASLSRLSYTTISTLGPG

T1 sequence (P06756 31-889 limits assumed): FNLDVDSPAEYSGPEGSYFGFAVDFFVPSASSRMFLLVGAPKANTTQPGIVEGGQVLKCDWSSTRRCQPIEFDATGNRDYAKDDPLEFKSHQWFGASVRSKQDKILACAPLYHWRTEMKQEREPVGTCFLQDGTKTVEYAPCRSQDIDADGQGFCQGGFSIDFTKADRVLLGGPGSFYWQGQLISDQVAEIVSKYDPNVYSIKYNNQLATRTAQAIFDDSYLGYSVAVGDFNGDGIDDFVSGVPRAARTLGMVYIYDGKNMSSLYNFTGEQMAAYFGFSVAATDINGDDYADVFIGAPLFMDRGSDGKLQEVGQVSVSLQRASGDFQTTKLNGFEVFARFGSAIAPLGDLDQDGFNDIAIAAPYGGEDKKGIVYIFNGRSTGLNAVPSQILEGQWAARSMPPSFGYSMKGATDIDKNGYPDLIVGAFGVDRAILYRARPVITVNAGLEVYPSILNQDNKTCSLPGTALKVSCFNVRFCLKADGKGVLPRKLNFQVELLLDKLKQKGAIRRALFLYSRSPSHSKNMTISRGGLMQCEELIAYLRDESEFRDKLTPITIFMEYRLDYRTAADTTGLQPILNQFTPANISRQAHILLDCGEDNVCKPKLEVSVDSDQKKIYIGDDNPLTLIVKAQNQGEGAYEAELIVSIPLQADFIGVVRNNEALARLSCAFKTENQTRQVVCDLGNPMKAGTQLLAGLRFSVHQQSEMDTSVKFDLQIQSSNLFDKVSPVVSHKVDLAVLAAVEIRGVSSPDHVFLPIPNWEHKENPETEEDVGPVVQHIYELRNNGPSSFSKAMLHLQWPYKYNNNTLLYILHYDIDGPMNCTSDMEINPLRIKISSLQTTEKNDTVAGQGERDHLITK
T1 sequence (P06756 891-1048 partner limits assumed): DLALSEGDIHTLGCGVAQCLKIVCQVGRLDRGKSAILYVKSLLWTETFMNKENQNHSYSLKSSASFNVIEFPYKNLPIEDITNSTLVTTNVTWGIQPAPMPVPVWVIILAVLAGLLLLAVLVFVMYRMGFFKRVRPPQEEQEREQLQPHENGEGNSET
T1 sequence (P05106 27-788): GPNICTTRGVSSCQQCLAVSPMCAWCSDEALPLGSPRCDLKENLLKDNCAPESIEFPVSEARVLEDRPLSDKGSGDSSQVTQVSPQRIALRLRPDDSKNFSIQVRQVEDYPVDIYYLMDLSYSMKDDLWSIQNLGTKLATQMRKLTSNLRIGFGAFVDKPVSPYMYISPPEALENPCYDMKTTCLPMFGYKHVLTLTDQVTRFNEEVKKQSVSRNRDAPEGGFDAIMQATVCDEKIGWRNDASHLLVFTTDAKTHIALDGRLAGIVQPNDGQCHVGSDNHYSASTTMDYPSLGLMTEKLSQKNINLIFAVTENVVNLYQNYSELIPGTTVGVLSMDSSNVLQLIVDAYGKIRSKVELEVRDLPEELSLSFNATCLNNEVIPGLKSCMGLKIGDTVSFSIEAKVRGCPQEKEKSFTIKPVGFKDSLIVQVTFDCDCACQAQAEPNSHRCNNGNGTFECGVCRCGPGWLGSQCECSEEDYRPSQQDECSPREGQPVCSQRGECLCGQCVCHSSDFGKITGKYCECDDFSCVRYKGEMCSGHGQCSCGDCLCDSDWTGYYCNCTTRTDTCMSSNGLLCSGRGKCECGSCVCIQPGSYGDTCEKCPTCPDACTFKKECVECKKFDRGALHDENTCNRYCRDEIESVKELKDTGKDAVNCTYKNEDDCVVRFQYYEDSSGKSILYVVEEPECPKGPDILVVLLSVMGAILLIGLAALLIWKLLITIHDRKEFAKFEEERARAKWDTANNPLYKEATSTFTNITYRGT

Compound	IC50 (integrin αvβ3) [nM]	Fluorescence-determined cell uptake [1] [%]	Fluorescence-determined cell uptake [2] [%]	time of best contrast in fluorescence imaging ([3]; after administration) [h]	tumor retention in fluorescence imaging ([3]; two days after injection)	IC50 (human CCK-2 receptor) [nM]
CC1=CC(=O)N(O)CCCC(NC(=O)CCN2C(=O)CC(SCCOCCOCCOCCOCCC(=O)NCCCC[C@@H]3NC(=O)[C@@H](Cc4ccccc4)NC(=O)[C@H](CC(=O)O)NC(=O)CNC(=O)[C@H](CCCNC(=N)N)NC3=O)C2=O)C(=O)OCCC(C)=CC(=O)N(O)CCCC(NC(=O)CCN2C(=O)CC(SCCOCCOCCOCCOCCC(=O)NCCCC[C@@H]3NC(=O)[C@@H](Cc4ccccc4)NC(=O)[C@H](CC(=O)O)NC(=O)CNC(=O)[C@H](CCCNC(=N)N)NC3=O)C2=O)C(=O)OCCC(C)=CC(=O)N(O)CCCC(NC(=O)CCCCC[N+]2=C(C=CC3=CC(=CC=C4N(C)c5ccc(S(=O)(=O)O)cc5C4(C)C)CCC3)C(C)(C)c3cc(S(=O)(=O)[O-])ccc32)C(=O)OCC1 (stereo partly drawn) [Sulfo-Cy7-FSC-RGD, Sulfo-Cyanine7-FSC-(mal-c(RGDfK)-(PEG4))2]	1.13 ± 0.22	5.79 ± 0.88	1.74 ± 0.25	24	completely washed out from tumor tissue	–
nonfluorescent divalent FSC-MG derivative: nonfluorescent divalent FSC-MG derivative, authors' unpublished data used for comparison (EAYGWMDF; Synthetic minigastrin analogue MG11, converted from the printed [D-Glu1,desGlu2-6]-Ala-Tyr-Gly-Trp-Met-Asp-Phe-NH2; Glu1 is D-Glu; C-terminal amide; Two peptides on one Fusarinine C chelator, no fluor)	–	–	–	–	–	0.9 ± 0.2
